Measurements: patent publication US20070238716A1, “STATIN STABILIZING DOSAGE FORMULATIONS” (priority 2006, published 2007)
Structures can show the parent of a compound that is named as a salt.

Assay: Solution state stability of the hemi calcium salt of Formula I at various pH conditions
Format: physicochemical
Method: Solution state stability studies were performed on 7-[2-(4-fluorophenyl)-5-isopropyl-3-phenyl-4-[(4-hydroxymethylphenylamino) carbonyl]-pyrrol- 1-yl]-3,5-dihydroxy-heptanoic acid by solubilizing the hemi calcium salt of Formula I at a range of pH conditions and storing the solution for one or two weeks under different temperature conditions.

CC(C)c1c(C(=O)Nc2ccc(CO)cc2)c(-c2ccccc2)c(-c2ccc(F)cc2)n1CCC(O)CC(O)CC(=O)O (centres unmarked) [7-[2-(4-fluorophenyl)-5-isopropyl-3-phenyl-4-[(4-hydroxymethylphenylamino)carbonyl]-pyrrol-1-yl]-3,5-dihydroxy-heptanoic acid]
pH at which the compound is stable in solution (conclusion from Table 1, more particularly pH 4.5 to pH 12): ≥ 4.5

CC(C)c1c(C(=O)Nc2ccc(CO)cc2)c(-c2ccccc2)c(-c2ccc(F)cc2)n1CCC(O)CC(O)CC(=O)O (centres unmarked) [hemi calcium salt of Formula I, 7-[2-(4-fluorophenyl)-5-isopropyl-3-phenyl-4-[(4-hydroxymethylphenylamino)carbonyl]-pyrrol-1-yl]-3,5-dihydroxy-heptanoic acid hemicalcium salt]
Drug Content (pH 2.0 Buffer, 1 week, 2-8 °C): 0.21 mg/mL
Drug Content (pH 2.0 Buffer, 1 week, 25 °C): 0.22 mg/mL
Drug Content (pH 2.0 Buffer, 1 week, 50 °C): 0.14 mg/mL
Drug Content (pH 2.0 Buffer, 2 Weeks, 2-8 °C): 0.19 mg/mL
Drug Content (pH 2.0 Buffer, 2 Weeks, 25 °C): 0.18 mg/mL
Drug Content (pH 2.0 Buffer, 2 Weeks, 50 °C): 0.09 mg/mL
Drug Content (pH 2.0 Buffer, Initial): 0.42 mg/mL
Drug Content (pH 4.5 Buffer, 1 week, 2-8 °C): 0.50 mg/mL
Drug Content (pH 4.5 Buffer, 1 week, 25 °C): 0.50 mg/mL
Drug Content (pH 4.5 Buffer, 1 week, 50 °C): 0.43 mg/mL
Drug Content (pH 4.5 Buffer, 2 Weeks, 2-8 °C): 0.50 mg/mL
Drug Content (pH 4.5 Buffer, 2 Weeks, 25 °C): 0.48 mg/mL
Drug Content (pH 4.5 Buffer, 2 Weeks, 50 °C): 0.38 mg/mL
Drug Content (pH 4.5 Buffer, Initial): 0.51 mg/mL
Drug Content (pH 5.5 Buffer, 1 week, 2-8 °C): 0.50 mg/mL
Drug Content (pH 5.5 Buffer, 1 week, 25 °C): 0.50 mg/mL
Drug Content (pH 5.5 Buffer, 1 week, 50 °C): 0.45 mg/mL
Drug Content (pH 5.5 Buffer, 2 weeks, 2-8 °C): 0.50 mg/mL
Drug Content (pH 5.5 Buffer, 2 weeks, 25 °C): 0.48 mg/mL
Drug Content (pH 5.5 Buffer, 2 weeks, 50 °C): 0.40 mg/mL
Drug Content (pH 5.5 Buffer, Initial): 0.50 mg/mL
Drug Content (pH 7.5 Buffer, 1 week, 2-8 °C): 0.50 mg/mL
Drug Content (pH 7.5 Buffer, 1 week, 25 °C): 0.50 mg/mL
Drug Content (pH 7.5 Buffer, 1 week, 50 °C): 0.45 mg/mL
Drug Content (pH 7.5 Buffer, 2 Weeks, 2-8 °C): 0.49 mg/mL
Drug Content (pH 7.5 Buffer, 2 Weeks, 25 °C): 0.49 mg/mL
Drug Content (pH 7.5 Buffer, 2 Weeks, 50 °C): 0.37 mg/mL
Drug Content (pH 7.5 Buffer, Initial): 0.50 mg/mL
Drug Content (pH 9.0 Buffer, 1 week, 2-8 °C): 0.49 mg/mL
Drug Content (pH 9.0 Buffer, 1 week, 25 °C): 0.49 mg/mL
Drug Content (pH 9.0 Buffer, 1 week, 50 °C): 0.45 mg/mL
Drug Content (pH 9.0 Buffer, 2 Weeks, 2-8 °C): 0.45 mg/mL
Drug Content (pH 9.0 Buffer, 2 Weeks, 25 °C): 0.47 mg/mL
Drug Content (pH 9.0 Buffer, 2 Weeks, 50 °C): 0.42 mg/mL
Drug Content (pH 9.0 Buffer, Initial): 0.49 mg/mL
Drug Content (pH 10.0 Buffer, 1 week, 2-8 °C): 0.49 mg/mL
Drug Content (pH 10.0 Buffer, 1 week, 25 °C): 0.49 mg/mL
Drug Content (pH 10.0 Buffer, 1 week, 50 °C): 0.45 mg/mL
Drug Content (pH 10.0 Buffer, 2 Weeks, 2-8 °C): 0.49 mg/mL
Drug Content (pH 10.0 Buffer, 2 Weeks, 25 °C): 0.47 mg/mL
Drug Content (pH 10.0 Buffer, 2 Weeks, 50 °C): 0.44 mg/mL
Drug Content (pH 10.0 Buffer, Initial): 0.49 mg/mL
Drug Content (pH 12.0 Buffer, 1 week, 2-8 °C): 0.49 mg/mL
Drug Content (pH 12.0 Buffer, 1 week, 25 °C): 0.49 mg/mL
Drug Content (pH 12.0 Buffer, 1 week, 50 °C): 0.45 mg/mL
Drug Content (pH 12.0 Buffer, 2 Weeks, 2-8 °C): 0.49 mg/mL
Drug Content (pH 12.0 Buffer, 2 Weeks, 25 °C): 0.48 mg/mL
Drug Content (pH 12.0 Buffer, 2 Weeks, 50 °C): 0.44 mg/mL
Drug Content (pH 12.0 Buffer, Initial): 0.49 mg/mL
